The sequences below were run on fresh peripheral blood mononuclear cells (PBMC) / HCV-specific CD4+ T-lymphocytes (assay: Lymphocyte proliferation assay (3H-thymidine incorporation) of PBMC stimulated with HCV peptides). Conditions: of 16 independent tests.
Type: cell-based, human (patients with acute hepatitis C)
Source text: To solve the task, a unique patient collective was identified, namely patients with acute hepatitis C who reach a lasting or at least temporary virus elimination in over 50% of cases. In order to test all possible CD4+ T-cell epitopes, the whole virus was covered with overlapping synthetic peptides from 15 to 20 amino acids long. A standardised lymphocyte proliferation assay was used as the test system. In order to determine both the degree of conservation between various virus sub-types and also the binding promiscuity as regards the relevant genetic background of the patients, a formula was defined based on the frequency of detection of an epitope and the strength of the immune reaction in question.
The stimulation index (SI) is normally calculated from the raw data of a proliferation assay and represents the multiplication factor of the measured sample in comparison with the control. An SI of 3 is regarded as significant.
A special patient collective was chosen and examined for HCV specific CD4+ T-cell epitopes relevant for the healing of the disease. The patient collective, namely patients with acute hepatitis C, is difficult to identify, since, on the one hand, they occur with a frequency of approx. 1:100,000 in the German population and, on the other hand, only T-lymphocytes were tested in the acute phase of the disease. This means a considerable limitation in the number of usable samples. Finally, within this patient collective, only patients were considered who were able to clear the virus spontaneously or to control it temporarily (this is only approx. 60% of the patients with acute hepatitis C), since only here has the immune system successfully taken action against the virus.
As the test system, the so-called “proliferation assay” was carried out according to the following protocol: After density gradient centrifugation on Ficoll gradients of heparinised blood, the fresh peripheral blood mononuclear cells (PBMC) were isolated and suspended in a culture medium (RPMI1640, Gibco). 50 μl of this cell suspension (concentration of 1×10^6 cells per ml) were placed on sterile 96-well culture plates. The cells were stimulated by the addition of the peptides. The final concentration of the peptides was 10 μg/ml. The cell culture plates were cultivated over 5 days at 37° C. and 5% CO2, then mixed with ^3H-thymidine and the incorporation of the radioactive ^3H was measured as a measure of the cell stimulation.
In our studies, only peptide reactions were regarded as significant whose stimulation index (SI) was greater than 3 (3× higher compared with the controls, or the irrelevant peptides).
The impact factor (IF) is based on a points system which not only uses the frequency of relevant reactions, i.e. stimulation index (SI) greater than 3, as normal, but also takes into account the strength of these reactions.
[formula] where • n1 is the sum of the reactions with 3<SI<6, • n2 is the sum of the reactions with SI≧6 and • m is the number of tests against the peptide in question, whereby m≧15.

With TITQLLKRLHQWINEDCSTP [EP007] the “n1, sum of the reactions with 3<SI<6” value was 4.

For TITQLLKRLHQWINEDCSTP [EP007], the “n2, sum of the reactions with SI≧6” value was 2.

Same assay, conditions: peptide 10 μg/ml, 5 days; calculated from n1 (reactions with 3<SI<6), n2 (SI≧6) and m tests, m≧15

Compared with “ARSLTPCTCGSSDLY (Hepatitis C virus) [EP002]”, CPCQVPAPEFFTEVDGVRLH [EP011] is lower in “IF (impact factor)” value: 27.6 for the first, 23.3 for the second.

CSGSWLRDVWDWICTVLTDF [EP008] and DVVCCSMSYTWTGALITPCA [EP017] are the same in “IF (impact factor)” value: 23.3 for the first, 23.3 for the second.

First: EVTRVGDFHYVTGMTTDNVK [EP010]
Second: FTEVDGVRLHRYAPACKPLL [EP012]
The “IF (impact factor)” value of the first is lower: 21.9 for the first, 28.1 for the second.

Compared with GAQITGHVKNGSMRIVGPKT [EP009], “GPRLGVRATRKTSER (Hepatitis C virus) [EP001]” is higher in “IF (impact factor)” value: 23.3 for the first, 24.0 for the second.

Going from “MWKCLIRLKPTLHGP (Hepatitis C virus) [EP004]” to PLLESWKDPDYVPPVVHGCP [EP016], the “IF (impact factor)” value rises from 24.1 to 26.7.

Going from “REVSVAAEILRKSRKFPPAM (Hepatitis C virus) [EP015]” to “SSDLYLVTRHADVIP (Hepatitis C virus) [EP003]”, the “IF (impact factor)” value falls from 25.0 to 23.2.

Going from SSSASQLSAPSLKATCTTHH [EP014] to THYVPESDAAARVTQILSSL [EP006], the “IF (impact factor)” value rises from 23.3 to 26.7.

Compared with TITQLLKRLHQWINEDCSTP [EP007], TSMLTDPSHITAETAKRRLA [EP013] is lower in “IF (impact factor)” value: 43.8 for the first, 26.7 for the second.

In the case of “VLVDILAGYGAGVAG (Hepatitis C virus) [EP005]”, the “IF (impact factor)” value is reported as 24.1.

Same assay, conditions: worked example in text, m=16 tests

In the case of TITQLLKRLHQWINEDCSTP [EP007], the impact factor is reported as 43.75.
